For assay [1], the target named is T1, CDK12 protein level in CAL-120 breast cancer cells (Homo sapiens, UniProt Q9NYV4).
T1 construct: endogenous in cells; host or cells: CAL-120 human breast cancer cells (DSMZ ACC 459)
Nature of the assay: CDK12 protein level: Protein Simple (CDK12, CAL-120). It is filed as cell-based. To be noted: CAL-120 cells, 18 h with compound, CDK12/HSP90 peak area ratio vs vehicle, median, read-out: CDK12 protein level in CAL-120 breast ca cells, DC50-[mol/l] (median). The essentials:
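Cells grown 24 h, then treated with compounds for 18 h at 37° C against DMSO controls. Lysates (0.4 microgramms protein) run on Protein Simple 66-440 kDa size assay with CDK12 and HSP90 loading-control antibodies. CDK12/HSP90 peak-area ratios versus vehicle gave DC50 (50% reduction) by 4-parameter fit.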

Assay [2] concerns the target T2, CDK9/CycT1 (Homo sapiens, UniProt P50750).
T2 construct: Recombinant full-length His-tagged human CDK9 and CycT1; purchased Life Technologies PV4131; host or cells: insect cells
Nature of the assay: CDK9/CycT1 high ATP kinase assay (TR-FRET, 2 mM ATP). The assay is classed as biochemical. To be noted: 2 mM ATP (high ATP); median; read-out: CDK9/CyclinT1, 2 mM ATP (high ATP), IC50 (median). The essentials:
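Full-length His-tagged human CDK9/CycT1 (insect cell, ~0.5 μg/mL) preincubated 15 min at 22 °C with compound in Tris pH 8.0, MgCl2, DTT buffer before reaction with biotinylated peptide substrate at high ATP (2 mM).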
On the technique in general: TR-FRET usually uses a lanthanide donor and a delayed reading to cut background.

The structures appear in SMILES notation. Bounds are passed on as bounds.

T2 sequence (P50750 whole entry): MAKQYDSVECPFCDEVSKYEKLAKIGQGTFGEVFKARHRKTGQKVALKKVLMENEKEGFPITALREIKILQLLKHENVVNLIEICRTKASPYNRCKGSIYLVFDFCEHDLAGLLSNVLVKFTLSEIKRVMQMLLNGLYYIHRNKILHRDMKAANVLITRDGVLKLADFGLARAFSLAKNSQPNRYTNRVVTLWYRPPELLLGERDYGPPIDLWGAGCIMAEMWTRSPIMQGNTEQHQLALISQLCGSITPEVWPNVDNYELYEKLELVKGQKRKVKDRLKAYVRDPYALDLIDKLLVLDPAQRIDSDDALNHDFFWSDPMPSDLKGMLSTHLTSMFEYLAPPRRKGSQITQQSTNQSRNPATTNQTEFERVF
T2 sequence (O60563 whole entry partner): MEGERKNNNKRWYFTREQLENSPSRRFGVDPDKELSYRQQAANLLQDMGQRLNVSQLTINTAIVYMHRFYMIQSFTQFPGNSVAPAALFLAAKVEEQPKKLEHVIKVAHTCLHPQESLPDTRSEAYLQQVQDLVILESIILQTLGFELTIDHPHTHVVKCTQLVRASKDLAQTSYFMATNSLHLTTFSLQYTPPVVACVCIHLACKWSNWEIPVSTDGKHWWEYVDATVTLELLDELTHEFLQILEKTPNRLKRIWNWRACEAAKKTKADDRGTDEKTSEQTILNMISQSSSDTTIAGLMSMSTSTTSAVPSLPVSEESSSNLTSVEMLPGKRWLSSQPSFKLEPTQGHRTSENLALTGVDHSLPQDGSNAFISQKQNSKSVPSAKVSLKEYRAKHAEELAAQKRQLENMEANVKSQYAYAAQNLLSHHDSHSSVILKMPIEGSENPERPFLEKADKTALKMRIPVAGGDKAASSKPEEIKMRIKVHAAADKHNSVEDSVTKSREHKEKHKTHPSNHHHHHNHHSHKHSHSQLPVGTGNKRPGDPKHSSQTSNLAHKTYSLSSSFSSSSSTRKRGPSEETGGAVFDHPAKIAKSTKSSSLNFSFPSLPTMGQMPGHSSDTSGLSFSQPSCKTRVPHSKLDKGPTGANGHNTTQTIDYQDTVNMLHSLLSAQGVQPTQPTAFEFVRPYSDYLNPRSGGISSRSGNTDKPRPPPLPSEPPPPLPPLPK
T1 sequence (Q9NYV4 whole entry): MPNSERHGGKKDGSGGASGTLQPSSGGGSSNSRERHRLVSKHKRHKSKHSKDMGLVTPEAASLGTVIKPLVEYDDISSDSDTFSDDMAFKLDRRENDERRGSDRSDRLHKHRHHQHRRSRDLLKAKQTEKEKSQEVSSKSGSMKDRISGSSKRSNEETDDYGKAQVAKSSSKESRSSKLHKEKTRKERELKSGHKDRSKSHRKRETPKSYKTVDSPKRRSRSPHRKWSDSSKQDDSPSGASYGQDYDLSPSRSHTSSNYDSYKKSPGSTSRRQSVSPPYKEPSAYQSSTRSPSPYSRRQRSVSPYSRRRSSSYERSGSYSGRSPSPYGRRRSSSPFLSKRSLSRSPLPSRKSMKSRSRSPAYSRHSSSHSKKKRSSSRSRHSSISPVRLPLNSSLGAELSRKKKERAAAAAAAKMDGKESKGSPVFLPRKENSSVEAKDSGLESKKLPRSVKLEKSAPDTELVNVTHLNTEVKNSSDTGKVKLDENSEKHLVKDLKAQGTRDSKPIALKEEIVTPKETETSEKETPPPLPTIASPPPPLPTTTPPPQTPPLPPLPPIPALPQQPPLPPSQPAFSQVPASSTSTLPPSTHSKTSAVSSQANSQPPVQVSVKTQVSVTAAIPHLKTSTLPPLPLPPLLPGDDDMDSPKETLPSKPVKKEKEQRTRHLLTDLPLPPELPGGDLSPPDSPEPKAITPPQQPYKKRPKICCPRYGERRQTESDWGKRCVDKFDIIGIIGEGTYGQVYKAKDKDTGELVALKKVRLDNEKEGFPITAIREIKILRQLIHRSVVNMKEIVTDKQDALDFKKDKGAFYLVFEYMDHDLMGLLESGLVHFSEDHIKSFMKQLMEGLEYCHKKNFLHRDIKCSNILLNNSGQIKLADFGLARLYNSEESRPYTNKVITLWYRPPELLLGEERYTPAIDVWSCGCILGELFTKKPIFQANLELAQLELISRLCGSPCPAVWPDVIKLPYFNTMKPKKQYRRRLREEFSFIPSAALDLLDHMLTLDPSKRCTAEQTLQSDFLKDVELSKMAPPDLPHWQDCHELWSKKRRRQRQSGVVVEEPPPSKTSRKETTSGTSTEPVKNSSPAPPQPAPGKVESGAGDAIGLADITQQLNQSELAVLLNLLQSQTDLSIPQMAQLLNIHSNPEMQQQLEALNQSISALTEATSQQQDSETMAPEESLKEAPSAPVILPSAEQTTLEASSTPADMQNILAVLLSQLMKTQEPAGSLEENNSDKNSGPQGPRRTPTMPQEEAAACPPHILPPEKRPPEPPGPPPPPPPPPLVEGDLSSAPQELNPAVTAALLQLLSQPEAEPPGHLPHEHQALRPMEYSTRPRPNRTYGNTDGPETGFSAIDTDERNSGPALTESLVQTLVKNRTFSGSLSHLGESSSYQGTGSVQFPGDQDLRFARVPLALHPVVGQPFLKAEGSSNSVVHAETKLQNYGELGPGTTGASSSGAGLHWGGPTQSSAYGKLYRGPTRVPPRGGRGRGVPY
T1 sequence (O75909 whole entry partner): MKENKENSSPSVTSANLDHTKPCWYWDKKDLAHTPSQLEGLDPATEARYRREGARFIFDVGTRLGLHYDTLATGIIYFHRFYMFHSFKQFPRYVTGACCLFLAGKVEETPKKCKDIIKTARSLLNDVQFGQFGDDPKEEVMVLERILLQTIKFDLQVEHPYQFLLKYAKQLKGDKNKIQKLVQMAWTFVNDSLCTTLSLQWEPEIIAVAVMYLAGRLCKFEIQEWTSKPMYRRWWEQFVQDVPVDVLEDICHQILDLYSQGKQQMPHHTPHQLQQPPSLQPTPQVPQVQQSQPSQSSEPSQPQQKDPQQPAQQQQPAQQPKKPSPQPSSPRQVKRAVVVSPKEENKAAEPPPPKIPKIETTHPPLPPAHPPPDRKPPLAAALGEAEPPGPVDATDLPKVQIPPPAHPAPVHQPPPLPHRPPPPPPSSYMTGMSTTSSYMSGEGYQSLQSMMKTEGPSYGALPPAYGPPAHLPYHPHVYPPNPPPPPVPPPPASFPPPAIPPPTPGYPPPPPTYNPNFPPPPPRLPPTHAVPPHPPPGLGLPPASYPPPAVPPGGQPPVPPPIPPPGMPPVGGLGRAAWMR

Turning to `Brc1cnn2c(NCc3nc4ccccc4[nH]3)nc(N3CCCCC3)nc12` [Example 46, N-[(1H-benzimidazol-2-yl)methyl]-8-bromo-2-(piperidin-1-yl)pyrazolo[1,5-a][1,3,5]triazin-4-amine], the DC50 in assay [1] was less than 0.03 µM. In addition, the IC50 in assay [2] was more than 20 µM. Take `Brc1cnn2c(NCc3nc4ccccc4[nH]3)nc(N3CC4(COC4)C3)nc12` [Example 48, N-[(1H-benzimidazol-2-yl)methyl]-8-bromo-2-(2-oxa-6-azaspiro[3.3]heptan-6-yl)pyrazolo[1,5-a][1,3,5]triazin-4-amine]: in assay [1], the DC50 is less than 0.03 µM. For the same compound, the IC50 in assay [2] was more than 20 µM. For `COc1cccc(-c2nnc(CNc3nc(N4CCOCC4)nc4c(Br)cnn34)[nH]2)c1` [Example 50, 8-bromo-N-{[5-(3-methoxyphenyl)-4H-1,2,4-triazol-3-yl]methyl}-2-(morpholin-4-yl)pyrazolo[1,5-a][1,3,5]triazin-4-amine] the same measures were 0.0396 µM and 2.01 µM. For `Brc1cnn2c(NCc3nnc(-c4ccccn4)[nH]3)nc(N3CCOCC3)nc12` [Example 54, 8-bromo-2-(morpholin-4-yl)-N-{[5-(pyridin-2-yl)-4H-1,2,4-triazol-3-yl]methyl}pyrazolo[1,5-a][1,3,5]triazin-4-amine] the same measures were less than 0.03 µM and 6.24 µM. With `Brc1cnn2c(NCc3nc4ccccc4[nH]3)nc(N3CCCC3)nc12` [Example 47, N-[(1H-benzimidazol-2-yl)methyl]-8-bromo-2-(pyrrolidin-1-yl)pyrazolo[1,5-a][1,3,5]triazin-4-amine], the DC50 in assay [1] was determined as 0.0589 µM. In addition, the IC50 in assay [2] is more than 20 µM. With `O=C(O)C(F)(F)F.c1ccc2[nH]c(CNc3nc(N4CCOCC4)nc4c(-c5cncs5)cnn34)nc2c1` [Example 441, trifluoroacetic acid-N-[(1H-benzimidazol-2-yl)methyl]-2-(morpholin-4-yl)-8-(1,3-thiazol-5-yl)pyrazolo[1,5-a][1,3,5]triazin-4-amine (1/1)], in assay [2], the IC50 is more than 20 µM.

For `Fc1ccc2[nH]c(CNc3nc(N4CCOCC4)nc4c(-c5ccnnc5)cnn34)nc2c1F` [Example 417, N-[(4,5-difluoro-1H-benzimidazol-2-yl)methyl]-2-(morpholin-4-yl)-8-(pyridazin-4-yl)pyrazolo[1,5-a][1,3,5]triazin-4-amine], in assay [2], the IC50 is more than 1.63 µM. Same read-out and setting: as for `Cc1cnn2c(NCc3nc4ccccc4[nH]3)nc(N3CCOCC3)nc12` [Example 393, N-[(1H-benzimidazol-2-yl)methyl]-8-methyl-2-(morpholin-4-yl)pyrazolo[1,5-a][1,3,5]triazin-4-amine], the figure is more than 20 µM; as for `Brc1cnn2c(NCc3nc4ccccc4[nH]3)nc(OCC3CC3)nc12` [Example 408, N-[(1H-benzimidazol-2-yl)methyl]-8-bromo-2-(cyclopropylmethoxy)pyrazolo[1,5-a][1,3,5]triazin-4-amine], more than 20 µM. As to `COc1cccc2nc(CNc3nc(N4CCOCC4)nc4c(-c5ccnnc5)cnn34)[nH]c12.O=C(O)C(F)(F)F` [Example 439, trifluoroacetic acid N-[(7-methoxy-1H-benzimidazol-2-yl)methyl]-2-(morpholin-4-yl)-8-(pyridazin-4-yl)pyrazolo[1,5-a][1,3,5]triazin-4-amine], the IC50 in assay [2] was more than 20 µM. Same read-out and setting: under `Cn1cc(-c2cnn3c(NCc4nc5c(F)c(F)ccc5[nH]4)nc(N4CCOCC4)nc23)cn1` [Example 418, N-[(4,5-difluoro-1H-benzimidazol-2-yl)methyl]-8-(1-methyl-1H-pyrazol-4-yl)-2-(morpholin-4-yl)pyrazolo[1,5-a][1,3,5]triazin-4-amine] stands more than 20 µM; under `CCc1cnn2c(NCc3nc4ccccc4[nH]3)nc(N3CCN(C)CC3)nc12` [Example 434, N-[(1H-benzimidazol-2-yl)methyl]-8-ethyl-2-(4-methylpiperazin-1-yl)pyrazolo[1,5-a][1,3,5] triazin-4-amine], more than 20 µM.

Take `CC(C)c1cnn2c(NCc3nnc(-c4ccccc4)[nH]3)nc(N3CCOCC3)nc12` [Example 33, 2-(morpholin-4-yl)-N-[(5-phenyl-4H-1,2,4-triazol-3-yl)methyl]-8-(propan-2-yl)pyrazolo[1,5-a][1,3,5]triazin-4-amine]: the IC50 in assay [2] was found to be 14.1 µM. On to `OC[C@@H]1CCCCN1c1nc(NCc2nc3ccccc3[nH]2)n2ncc(Br)c2n1` [Example 59, [(2S)-1-(4-{[(1H-benzimidazol-2-yl)methyl]amino}-8-bromopyrazolo[1,5-a][1,3,5]triazin-2-yl)piperidin-2-yl]methanol], for which the IC50 in assay [2] is 10.7 µM. For `Fc1cccc2[nH]c(CNc3nc(N4CCN5CCC4CC5)nc4c(C(F)(F)F)cnn34)nc12` [Example 410, 2-(1,4-diazabicyclo[3.2.2]nonan-4-yl)-N-[(4-fluoro-1H-benzimidazol-2-yl)methyl]-8-(trifluoromethyl)pyrazolo[1,5-a][1,3,5]triazin-4-amine], the IC50 in assay [2] is more than 20 µM. The same measure, in the same setting: as for `CC(C)c1cnn2c(NCc3nnc(-c4ccccc4)[nH]3)nc(N3CCN(C)CC3)nc12` [Example 37, 2-(4-methylpiperazin-1-yl)-N-[(5-phenyl-4H-1,2,4-triazol-3-yl)methyl]-8-(propan-2-yl)pyrazolo[1,5-a][1,3,5]triazin-4-amine], the figure is more than 20 µM; as for `FC(F)n1cc(-c2cnn3c(NCc4nc5ccccc5[nH]4)nc(N4CCOCC4)nc23)cn1` [Example 421, N-[(1H-benzimidazol-2-yl)methyl]-8-[1-(difluoromethyl)-1H-pyrazol-4-yl]-2-(morpholin-4-yl)pyrazolo[1,5-a][1,3,5]triazin-4-amine], more than 20 µM; as for `Cn1cc(-c2cnn3c(NCc4nc5cc(Cl)c(Cl)cc5[nH]4)nc(N4CCOCC4)nc23)cn1` [Example 419, N-[(5,6-dichloro-1H-benzimidazol-2-yl)methyl]-8-(1-methyl-1H-pyrazol-4-yl)-2-(morpholin-4-yl)pyrazolo[1,5-a][1,3,5]triazin-4-amine], more than 20 µM. Regarding `N#Cc1cccc(-c2nnc(CNc3nc(N4CCOCC4)nc4c(Br)cnn34)[nH]2)c1` [Example 55, 3-[5-({[8-bromo-2-(morpholin-4-yl)pyrazolo[1,5-a][1,3,5]triazin-4-yl]amino}methyl)-4H-1,2,4-triazol-3-yl]benzonitrile], the IC50 in assay [2] is 0.718 µM.

The values are drawn from patent publication US20230117034A1, “PYRAZOLOTRIAZINES” (Bayer Aktiengesellschaft, priority 2019, published 2023).
